Experimental data reported in patent publication US20250230193A1, “CYCLIC COMPOUND HAVING SELECTIVE KRAS INHIBITORY EFFECT ON HRAS AND NRAS” (CHUGAI SEIYAKU KABUSHIKI KAISHA, priority 2022, published 2025).

What was measured:
[1] = target: GDP-bound NRAS wild-type protein (Homo sapiens, UniProt P01111); assay: Binding to NRAS by surface plasmon resonance (SPR), Single Cycle Kinetics; conditions: SPR; KD ratio class
[2] = target: GDP-bound HRAS wild-type protein (Homo sapiens, UniProt P01112); assay: Binding to HRAS by surface plasmon resonance (SPR), Single Cycle Kinetics; conditions: SPR; KD ratio class
[3] = system: human lung cancer strain NCI-H441; assay: cells; conditions: NCI-H441, 96 h, read-out: NCI-H441 IC50 (nM)

GDP-bound HRAS wild-type protein, sequence (P01112 whole entry): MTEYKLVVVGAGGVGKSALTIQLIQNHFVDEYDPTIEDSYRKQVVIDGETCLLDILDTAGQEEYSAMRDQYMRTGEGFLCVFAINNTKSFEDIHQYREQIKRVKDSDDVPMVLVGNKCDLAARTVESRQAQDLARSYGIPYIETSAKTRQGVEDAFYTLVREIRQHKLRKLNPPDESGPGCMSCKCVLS
GDP-bound NRAS wild-type protein, sequence (P01111 whole entry): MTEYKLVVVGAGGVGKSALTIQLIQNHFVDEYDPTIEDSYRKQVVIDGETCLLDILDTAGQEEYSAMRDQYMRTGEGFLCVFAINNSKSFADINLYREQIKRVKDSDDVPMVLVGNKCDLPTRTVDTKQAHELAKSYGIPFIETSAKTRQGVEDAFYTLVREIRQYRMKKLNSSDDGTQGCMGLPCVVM

Compound	IC50 [3]	NRAS/KRAS (ratio of KD value for GDP-bound NRAS wild-type protein to KD value for KRAS) [1]	HRAS/KRAS (ratio of KD value for GDP-bound HRAS wild-type protein to KD value for KRAS) [2]
CCO[C@@H]1C[C@H]2C(=O)NC3(CC(C)(C)C3)C(=O)N(C)[C@@H](C3CCCC3)C(=O)N(C)[C@H](C(=O)N(C)CC)CC(=O)N(C)[C@@H](CC)C(=O)N[C@@H]([C@@H](C)CC)C(=O)N(C)CC(=O)N(C)[C@H]3C/C=C\CCN(C3=O)[C@@H](Cc3ccc(C(F)(F)F)cc3)C(=O)N(C)CC(=O)N[C@@H](CCc3cc(F)c(C(F)(F)F)c(F)c3)C(=O)N2C1 [PP1579]	4.1 nM	A (a compound having 10 or more and less than 20 is denoted as A)	B (a compound having 3 or more and less than 10 is denoted as B)
CCO[C@@H]1C[C@H]2C(=O)NC3(CCC3)C(=O)N(C)[C@@H](C(CC)CC)C(=O)N(C)[C@H](C(=O)N(C)C)CC(=O)N(C)[C@@H](CC)C(=O)N[C@@H]([C@@H](C)CC)C(=O)N(C)CC(=O)N(C)[C@H]3C/C=C\CCN(C3=O)[C@@H](Cc3ccc(C(F)(F)F)cc3)C(=O)N(C)CC(=O)N[C@@H](CCc3cc(F)c(Cl)c(F)c3)C(=O)N2C1 [PP1230]	110 nM	A (a compound having 10 or more and less than 20 is denoted as A)	A (a compound having 10 or more and less than 20 is denoted as A)
CCO[C@@H]1C[C@H]2C(=O)NC3(CCC3)C(=O)N(C)[C@@H](C3CCCC3)C(=O)N(C)[C@H](C(=O)N3CCOCC3)CC(=O)N(C)[C@@H](CC)C(=O)N[C@@H]([C@@H](C)CC)C(=O)N(C)CC(=O)N(C)[C@H]3CC[C@@H](C)CN(C3=O)[C@@H](Cc3ccc(C(F)(F)F)cc3)C(=O)N(C)CC(=O)N[C@@H](CCc3ccc(C(F)(F)F)c(Cl)c3)C(=O)N2C1 [PP1378]	6.6 nM	B (a compound having 3 or more and less than 10 is denoted as B)	C (A compound having a KD ratio of 0.1 or more and less than 3 is denoted as C)
CCO[C@@H]1C[C@H]2C(=O)NC3(CCC3)C(=O)N(C)[C@@H](C(CC)CC)C(=O)N(C)[C@H](C(=O)N(C)C)CC(=O)N(C)[C@@H](COC)C(=O)N[C@@H]([C@@H](C)CC)C(=O)N(C)CC(=O)N(C)[C@H]3C/C=C\CCN(C3=O)[C@@H](Cc3ccc(C(F)(F)F)cc3)C(=O)N(C)CC(=O)N[C@@H](CCc3ccc(Cl)c(Cl)c3)C(=O)N2C1 [PP1221]	40.6 nM	AA (a compound having 20 or more is denoted as AA)	A (a compound having 10 or more and less than 20 is denoted as A)
CCO[C@@H]1C[C@H]2C(=O)NC3(CCC3)C(=O)N(C)[C@@H](C3CCCC3)C(=O)N(C)[C@H](C(=O)N(C)C)CC(=O)N(C)[C@@H](CC3CC3)C(=O)N[C@@H]([C@@H](C)CC)C(=O)N(C)CC(=O)N(C)[C@H]3C/C=C\CCN(C3=O)[C@@H](Cc3ccc(F)cc3)C(=O)N(C)CC(=O)N[C@@H](CCc3cc(F)c(Cl)c(F)c3)C(=O)N2C1 [PP1479]	140 nM	A (a compound having 10 or more and less than 20 is denoted as A)	B (a compound having 3 or more and less than 10 is denoted as B)
CCO[C@@H]1C[C@H]2C(=O)NC3(CCC3)C(=O)N(C)[C@@H](C3CCCC3)C(=O)N(C)[C@H](C(=O)N(C)C)CC(=O)N(C)[C@@H](CC3CC3)C(=O)N[C@@H]([C@@H](C)CC)C(=O)N(C)CC(=O)N(C)[C@H]3C/C=C\CCN(C3=O)[C@@H](Cc3ccc(C)cc3)C(=O)N(C)CC(=O)N[C@@H](CCc3ccc(Cl)c(Cl)c3)C(=O)N2C1 [PP1485]	30.5 nM	A (a compound having 10 or more and less than 20 is denoted as A)	A (a compound having 10 or more and less than 20 is denoted as A)
CCO[C@@H]1C[C@H]2C(=O)NC3(CC(C)(C)C3)C(=O)N(C)[C@@H](C(CC)CC)C(=O)N3CCC[C@@H]3CC(=O)N(C)[C@@H](CC)C(=O)N[C@@H]([C@@H](C)CC)C(=O)N(C)CC(=O)N(C)[C@H]3C/C=C\CCN(C3=O)[C@@H](Cc3ccc(C(F)(F)F)cc3)C(=O)N(C)CC(=O)N[C@@H](CCc3cc(F)c(C(F)(F)F)c(F)c3)C(=O)N2C1 [PP1605]	31.6 nM	A (a compound having 10 or more and less than 20 is denoted as A)	A (a compound having 10 or more and less than 20 is denoted as A)
CCO[C@@H]1C[C@H]2C(=O)NC3(CCC3)C(=O)N(C)[C@@H](C(CC)CC)C(=O)N(C)[C@H](C(=O)N(C)C)CC(=O)N(C)[C@@H](CC(C)C)C(=O)N[C@@H]([C@@H](C)CC)C(=O)N(C)CC(=O)N(C)[C@H]3C/C=C\CCN(C3=O)[C@@H](CC3CCCCC3)C(=O)N(C)CC(=O)N[C@@H](CCc3cc(F)c(C(F)(F)F)c(F)c3)C(=O)N2C1 [PP1432]	51.3 nM	AA (a compound having 20 or more is denoted as AA)	A (a compound having 10 or more and less than 20 is denoted as A)
CCCC[C@H]1C(=O)N[C@@H]([C@@H](C)CC)C(=O)N(C)CC(=O)N(C)[C@H]2C/C=C\CCN(C2=O)[C@@H](Cc2ccc(C(F)(F)F)cc2)C(=O)N(C)CC(=O)N[C@@H](CCc2cc(F)c(C(F)(F)F)c(F)c2)C(=O)N2C[C@H](OCC)C[C@H]2C(=O)NC2(CCC2)C(=O)N(C)[C@@H](C2CCCC2)C(=O)N(C)[C@H](C(=O)N(C)CC)CC(=O)N1C [PP1558]	3.4 nM	A (a compound having 10 or more and less than 20 is denoted as A)	B (a compound having 3 or more and less than 10 is denoted as B)

More lines, in order of falling IC50 [3], values ahead:

IC50 [3]	Compound	NRAS/KRAS (ratio of KD value for GDP-bound NRAS wild-type protein to KD value for KRAS) [1]	HRAS/KRAS (ratio of KD value for GDP-bound HRAS wild-type protein to KD value for KRAS) [2]
305 nM	CCO[C@@H]1C[C@H]2C(=O)NC3(CCC3)C(=O)N(C)[C@@H](C3CCCC3)C(=O)N(C)[C@H](C(=O)N(C)C)CC(=O)N(C)[C@@H](CC3CCCC3)C(=O)N[C@@H]([C@@H](C)CC)C(=O)N(C)CC(=O)N(C)[C@H]3C/C=C\CCN(C3=O)[C@@H](Cc3ccc(F)cc3)C(=O)N(C)CC(=O)N[C@@H](CCc3ccc4sccc4c3)C(=O)N2C1 [PP1390]	A (a compound having 10 or more and less than 20 is denoted as A)	A (a compound having 10 or more and less than 20 is denoted as A)
53.5 nM	CCO[C@@H]1C[C@H]2C(=O)NC3(CCC3)C(=O)N(C)[C@@H](C3CCCC3)C(=O)N(C)[C@H](C(=O)N(C)C)CC(=O)N(C)[C@@H](CC)C(=O)N[C@@H](C(C)C)C(=O)N(C)CC(=O)N(C)[C@H]3C/C=C\CCN(C3=O)[C@@H](Cc3ccc(C(F)(F)F)cc3)C(=O)N(C)CC(=O)N[C@@H](CCc3cc(F)c(C(F)(F)F)c(F)c3)C(=O)N2C1 [PP1270]	A (a compound having 10 or more and less than 20 is denoted as A)	B (a compound having 3 or more and less than 10 is denoted as B)
45.7 nM	CCO[C@@H]1C[C@H]2C(=O)NC3(CCC3)C(=O)N(C)[C@@H](C(CC)CC)C(=O)N(C)[C@H](C(=O)N(C)C)CC(=O)N(C)[C@@H](CC3CCCC3)C(=O)N[C@@H]([C@@H](C)CC)C(=O)N(C)CC(=O)N(C)[C@H]3C/C=C\CCN(C3=O)[C@@H](Cc3ccc(F)cc3C)C(=O)N(C)CC(=O)N[C@@H](CCc3cc(F)c(C(F)(F)F)c(F)c3)C(=O)N2C1 [PP1516]	A (a compound having 10 or more and less than 20 is denoted as A)	B (a compound having 3 or more and less than 10 is denoted as B)
34.7 nM	CCO[C@@H]1C[C@H]2C(=O)NC3(CCC3)C(=O)N(C)[C@@H](C(CC)CC)C(=O)N(C)[C@H](C(=O)N(C)C)CC(=O)N(C)[C@@H](CC3CC3)C(=O)N[C@@H]([C@@H](C)CC)C(=O)N(C)CC(=O)N(C)[C@H]3C/C=C\CCN(C3=O)[C@@H](Cc3ccc(C(F)(F)F)cc3)C(=O)N(C)CC(=O)N[C@@H](CCc3cc(F)c(Cl)c(F)c3)C(=O)N2C1 [PP1233]	AA (a compound having 20 or more is denoted as AA)	A (a compound having 10 or more and less than 20 is denoted as A)
18.8 nM	CCCOC[C@H]1C(=O)N[C@@H]([C@@H](C)CC)C(=O)N(C)CC(=O)N(C)[C@H]2C/C=C\CCN(C2=O)[C@@H](Cc2ccc(C(F)(F)F)cc2)C(=O)N(C)CC(=O)N[C@@H](CCc2cc(F)c(C(F)(F)F)c(F)c2)C(=O)N2C[C@H](OCC)C[C@H]2C(=O)NC2(CCCC2)C(=O)N(C)[C@@H](C2CCCC2)C(=O)N(C)[C@H](C(=O)N2CCCC2)CC(=O)N1C [PP1399]	A (a compound having 10 or more and less than 20 is denoted as A)	A (a compound having 10 or more and less than 20 is denoted as A)
3.5 nM	CCO[C@@H]1C[C@H]2C(=O)NC3(CCCC3)C(=O)N(C)[C@@H](C3CCCC3)C(=O)N(C)[C@H](C(=O)N(C)C)CC(=O)N(C)[C@@H](CC)C(=O)N[C@@H]([C@@H](C)CC)C(=O)N(C)CC(=O)N(C)[C@H]3CC[C@@H](C)CN(C3=O)[C@@H](Cc3ccc(C(F)(F)F)cc3)C(=O)N(C)CC(=O)N[C@@H](CCc3ccc(C(F)(F)F)c(Cl)c3)C(=O)N2C1 [PP1376]	B (a compound having 3 or more and less than 10 is denoted as B)	B (a compound having 3 or more and less than 10 is denoted as B)
